Here are results for 5 molecules from US20110003844A1, “REGULATION OF CARDIAC CONTRACTILITY AND HEART FAILURE PROPENSITY” (Children's Hospital Medical Center, priority 2003, published 2011).

The subject of data set [1] is adult wildtype mouse hearts. In words: ex vivo working heart preparation, Ro-32-0432 infusion. The method, then: Mice from all genotypes or treatment groups were anesthetized with isoflurane, and echocardiography was performed using a Hewlett Packard 5500 instrument with a 15-MHZ microprobe. Echocardiographic measurements were taken on M-mode in triplicate from four separate mice per group. The isolated ejecting mouse heart preparation used in the present study has been described in detail previously (Gulick et al. (1997) Circ. Res. 80:655-664), as was the close-chested working heart model employed here (Lorenz et al. (1997) Am. J. Physiol. 272:H1137-H1146).
The relatively selective PKCα/β inhibitory compound Ro-32-0432 [2-{8-[(Dimethylamino)methyl]-6,7,8,9-tetrahydropyrido[1,2-a]indol-3-yl}-3-(1-methylindol-3-yl)maleimide, HCl Salt] [3-{8-[(Dimethylamino)methyl]-6,7,8,9-tetrahydropyrido[1,2-a]indol-10-yl}-4-(1-methylindol-3-yl)-1H -pyrrole-2,5-dione, HCl Salt] was used as a means of directly examining the effects of acute PKCα inhibition on cardiac function and contractility using an ex vivo working heart preparation. The working heart preparation separates the inherent pump function of the heart from potential alterations in total vascular resistance as might occur if the drug were infused in vivo.
Working adult wildtype mouse hearts were infused with vehicle control (10% DMSO) or Ro-32-0432 in 10% DMSO at concentrations ranging between 4×10^−10 through 4'10^−6M. Four animals were analyzed in the Ro-32-0432 group and compared with three animals in the vehicle control group. […] The average heart rate of the vehicle and drug treated groups was 351+/=3 and 292+/−6 beats per minute, respectively. […] The approximate 20% change in acute contractile performance in the Ro-32-0432 treated group is similar to the increase in cardiac function observed in PKCα null mice.

Data set [2] relates to normal Sprague-Dawley and Lewis rats. The data set is described as follows: in vivo cardiac contractility and hemodynamics in anesthetized normal rats. Details: species or system rat. The method, then: Selected PKCα inhibitors are evaluated in both naive rats and rats with myocardial infarction (MI) for effects on cardiac contractility and hemodynamics. The effects of inhibitors on cardiac contractility and hemodynamics are evaluated in naïve and MI rats as follows. The animals are anesthetized with isoflurane. A femoral artery is isolated and cannulated for the measurement of systemic blood pressure. A jugular vein is isolated and cannulated for the intravenous infusion of inhibitor. The right carotid artery is isolated and a Millar conductance catheter is inserted to the left ventricle (LV) of the heart. The LV systolic pressure, end-diastolic pressure, +maximum dP/dt, −minimum dP/dt, and heart rate are derived from the LV pressure waveform. Mean arterial blood pressure is derived from the systemic blood pressure waveform. Data are recorded continuously and derived using computerized data acquisition software (Notocord or Powerlab). After a period of stabilization, PKCα inhibitors are infused at the following infusion doses in naïve rats: 0.1, 0.3, 1.0, 3.0, 10, 30, 100, 300 and 1000 nmol/kg/min. The infusion of each dose is allowed to run for at least five minutes. In MI rats, the infusion doses are as follows: 10, 30, 100, 300, and 1000 nmol/kg/min for at least five minutes. Equivalent infusion volumes are administered to separate, vehicle-control naïve and MI animals. At the end of the test infusions, 5.0 μg/kg/min of dobutamine is infused.

For the next data set, the system named is PKC isoforms. The following applies: cited from earlier work.
For the next data set, the system named is PKCα−/− hearts. In words: ex vivo working heart preparation, acute PMA infusion, PKCα null hearts. Also on record: species or system mouse. Here is the method: (§1) Hearts were isolated from four wild-type and four PKCα −/− (PKCα null) transgenic mice. The isolated hearts were infused with PMA at 9 different concentrations ranging from 8×10^−11 through 8×10^−7 M. Acute PMA infusion of each concentration occurred for a 7 minute period. The hearts were measured for maximal and minimal dP/dt in systole and diastole respectively.

In data set [3] the test system is isolated ventricular myocytes from adult rats. As to conditions: 10^−7 M, 1 Hz, 1 mM calcium; cited from earlier work.
A further data set addresses T1, PKCα (Rattus norvegicus, UniProt P05696).
T1 construct: confocal micrographs of PKCα protein localization in adult rat cardiac myocytes at baseline (PKCα) or after PMA; endogenous in cells; host or cells: adult rat cardiomyocytes in culture
The data set is described as follows: confocal immunohistochemistry of PKCα localization in adult cardiomyocytes. It counts as cell-based. The following applies: adult rat cardiomyocytes in culture, acute PMA stimulation.

The next data set has as its system wildtype mouse hearts. In words: ex vivo working heart preparation, acute PMA infusion, wildtype hearts. Here is the method:
as §1

In data set [4] the test system is isolated chicken ventricular myocytes. As to conditions: 1 μM drug; cited from earlier work.
Data set [5] concerns isolated cardiac myocytes and whole guinea-pig hearts. As to conditions: cited from earlier work.
Another data set relates to PKCα-GFP. The data set is described as follows: translocation of PKCα-GFP indicator polypeptide, confocal microscopy. It is filed as cell-based. As to conditions: neonatal rat cardiomyocytes, PMA 60 minutes. Here is the method:
A PKCα indicator was prepared by operably linking a nucleotide sequence encoding PKCα to a nucleotide sequence encoding green fluorescence protein (GFP). An expression cassette comprising the PKCα-GFP nucleotide sequence was prepared. Adenovirus comprising the PKCα-GFP expression cassette was prepared.
Neonatal rat cardiomyocytes were cultured in plastic dishes and incubated until the appropriate density was reached. The cardiomyocytes were infected with an adenovirus encoding PKCα-GFP. The cultures were incubated for 24 hours. After 24 hours the cells were incubated with either DMSO alone (the vehicle treatment) or DMSO and PMA for 60 minutes. The cells were fixed and examined by confocal microscopy.

The subject of the next data set is MI rats. In words: in vivo cardiac contractility in anesthetized rats with myocardial infarction. Also on record: species or system rat. Here is the method: Selected PKCα inhibitors are evaluated in both naive rats and rats with myocardial infarction (MI) for effects on cardiac contractility and hemodynamics.
Male, Sprague-Dawley or Lewis rats weighing between 225-500 gm are anesthetized with isoflurane and an MI is induced as follows. A thoracotomy at the fourth or fifth intercostal space is done, the heart is exposed and the pericardium is opened. A 5-0 suture is placed around the left descending coronary artery 2-4 mm from its origin and permanently tied. The ribs, muscle and skin are separately closed and the animal is allowed to recover. Twenty to twenty-three weeks after surgery the animals are used to evaluate the effects of PKCα inhibitors on cardiac contractility and hemodynamics.
The effects of inhibitors on cardiac contractility and hemodynamics are evaluated in naïve and MI rats as follows. The animals are anesthetized with isoflurane. A femoral artery is isolated and cannulated for the measurement of systemic blood pressure. A jugular vein is isolated and cannulated for the intravenous infusion of inhibitor. The right carotid artery is isolated and a Millar conductance catheter is inserted to the left ventricle (LV) of the heart. […] Data are recorded continuously and derived using computerized data acquisition software (Notocord or Powerlab). […]

[6] abbreviates: 1000 nmol/kg/min i.v. infusion, 5 min, n=3.

“Also recorded” adds a separate entry of the source. Read-outs that look alike come from different tables or passages of the source.

For “2-{8-[(Dimethylamino)methyl]-6,7,8,9-tetrahydropyrido[1,2-a]indol-3-yl}-3-(1-methylindol-3-yl)maleimide, HCl Salt [Ro-32-0432]”, in data set [1] (Ro-32-0432 treated group, similar to PKCα null mice), the “change in acute contractile performance” value is on record as approximately 20%. The “average heart rate of drug treated group” value in data set [1] (during infusion, 295+/−26 before treatment) is on record as 292+/−6 beats per minute. Moreover, the “increase in acute contractile function, measured as maximum dP/dt” value in [1] (infused at 4×10^−10 to 4×10^−6 M, 7 min per concentration, values summated, average dosage approx 1×10^−8 M, P<0.05) was found to be 20%. Also, in data set [1] (infused at 4×10^−10 to 4×10^−6 M, values summated, average dosage approx 1×10^−8 M, P<0.05), the “increase in left ventricular pressure developed” value came out at 20%. In addition, the “acute cardiac contractility upon infusion (FIG. 38)” value in [1] (infusion vs baseline, p<0.05) is reported as “statistically significant increase”.
Take `CN(C)C[C@@H]1CCn2cc(c3ccccc32)C2=C(C(=O)NC2=O)c2cn(c3ccccc23)CCO1` [LY333531]: in data set [2] (setting [6]), the “maximum dP/dt increase compared to baseline” value came out at 28% and the “minimum dP/dt increase compared to baseline” value was found to be 17%. In data set [2] (1000 nmol/kg/min, baseline 315±17, not statistically significant), this molecule registered a heart rate of 294±8 beats per minute.
Consider `CNC[C@@H]1CCn2cc(c3ccccc32)C2=C(C(=O)NC2=O)c2cn(c3ccccc23)CCO1` [LY338522], for which the “inhibition of the PKC isoforms” value in the data set with PKC isoforms is recorded as “effective in inhibiting the PKC isoforms”.
Take `CCCCCCCCCCCCCC(=O)O[C@@H]1[C@@H](C)[C@@]2(O)[C@@H](C=C(CO)C[C@]3(O)C(=O)C(C)=C[C@@H]23)[C@@H]2C(C)(C)[C@]12OC(C)=O` [PMA, phorbol myristate acetate]: the functional performance result in the data set on PKCα−/− hearts (highest concentrations of PMA) was “only a mild depression in functional performance”; with wildtype mouse hearts (concentrations higher than 8×10^−9 M) it was “marked decrease in functional performance”. Further, the inotropic effect entry with PKCα−/− hearts (low doses of PMA) is recorded as “immediate positive inotropic effect”. Besides, the “twitch amplitude, of control” value in [3] is “approximately 60%”. The PKCα protein localization entry at PKCα was “rapid translocation”. Further, the “contractile performance (Maximum dP/dt or Minimum dP/dt)” value in the data set on wildtype mouse hearts (8×10^−11 through 8×10^−9 M) is reported as “essentially no effect”. The “maximum decrease in the amplitude of cell shortening” value in [4] is reported as 54%. In addition, the inotropic response result in [5] (10^−12 M PMA) is given as “significant positive inotropic response”; in data set [5] (concentrations higher than 10^−10 M PMA) it was “negative inotropic response”. Besides, the PKCα-GFP localization result in the data set with PKCα-GFP is “highly localized and punctate staining pattern; also recorded: robust redistribution of PKCα-GFP”.
For `[H]/N=C(/N)SCCCn1cc(C2=C(c3cn(C)c4ccccc34)C(=O)NC2=O)c2ccccc21` [Ro-31-8220], the “inotropic benefit compared with dobutamine” value in the data set on MI rats (dobutamine 5.0 μg/kg/min for 5 minutes) is given as “greater than that seen with dobutamine”. Besides, in the data set on MI rats (dose dependent i.v. infusion 10-1000 nmol/kg/min, significance (P<0.05) at 300 nmol/kg/min, n=4), the “percent increase in maximum dP/dt from baseline” value turned out to be 21%.
